{"source": "patent US9051351B2", "about": "“Hepatocyte growth factor mimics as therapeutic agents” (Washington State University, priority 2011, dated 2015)", "key": {"scopolamine treated rats": {"system": "scopolamine treated rats", "assay": "Morris water maze, scopolamine amnesia model", "assay_type": "in vivo, rat", "conditions": "for mean latency to find the pedestal: Dihexa, Hinge 300 pmol, scopolamine 70 nmol", "protocol": "Swim speed was determined from these values."}, "c-Met receptor": {"system": "c-Met receptor", "assay": "c-Met phosphorylation in acute adult hippocampal slices", "assay_type": "cell-based, rat", "conditions": "30 minutes", "excerpt": "Adult Sprague-Dawley rats (250 g+) obtained from Harlan Laboratories (Ca, USA) were anesthetized with isofluorane (Vet One™, MWI, Meridian, Id., USA) and decapitated. The brain was rapidly removed and placed into ice-chilled artificial cerebrospinal fluid (aCSF) for approximately 30 s. Both hemispheres were separated by a mid-saggital cut and both hippocampi removed. Slices were sectioned cross- and length-wise (400 μm) to ensure penetrability of the drug, using a Mcllwain tissue chopper (Brinkmann, Gomshall, UK) and transferred to a gassed (95% O2/5% CO2) incubation chamber containing aCSF for 90 minutes at room temperature. Slices were transferred to fresh tubes, aCSF was removed by careful suctioning and replaced with aCSF containing vehicle (aCSF+aCSF), 100 ng/ml with carrier free adult recombinant Hepatocyte Growth Factor (HGF) (R and D Systems, MN, USA) in aCSF, 10^−10 M Hinge (Harding lab), […], 10^−10 M Dihexa (Harding lab) in aCSF, 10^−12 M Dihexa in aCSF or 50 ng/ml HGF+10^−12 M Dihexa in aCSF for 30 minutes at 37° C. with gentle rocking. aCSF was removed and the slices were lysed using RIPA buffer (Upstate/Milipore, Billerica, Mass.) and inhibitor Cocktails I and II (Sigma, St. Louis, Mo.), sonicated on ice and clarified by centrifugation for 30 minutes, 13,000 rpm at 4° C. The supernatant was removed from the pellet and stored at −80° C. or processed immediately for gel electrophoresis.\nProtein concentration of the samples was quantified using the BCA method (Pierce, Rockford, Ill.) following the manufacturers protocol. Samples were added to SDS-PAGE buffer and boiled for 10 min. before loading onto a 4-12% Bis-Tris pre-cast gel (Invitrogen, Carlsbad, Calif.) for electrophoresis. Proteins were transferred onto PVDF membranes (Bio Rad, Hercules, Calif.) and blocked with AquaBlock™ (New England Biolabs, Ipswich, Mass.) for 1 hour at room temperature (RT). Primary antibody incubation was done in AquaBlock™ with rabbit anti-Met and […] phospho-Met (Tyr1234/1235) (1:1000, Cell Signaling Technology, Danvers, Mass.) overnight at 4° C. Alternating washes were done with PBS and PBST. Secondary antibody (IRDye) (Rockland, Gilbertsville, Pa.) incubations were done in AquaBlock™ for one hour at RT. Blots were imaged using LI-COR Odyssey Infrared Imaging System (LI-COR Biosciences, Lincoln, Nebr.)."}, "[1]": {"assay": "Dihexa pharmacokinetics in rats (IV, intraperitoneal)", "assay_type": "in vivo, rat", "protocol": "Ethics approval for animal experimentation was obtained from Washington State University.\nDihexa solutions were prepared by suspending dry stock dihexa in DMSO at 1 mg/mL and subsequent serial dilutions in 50% DMSO or HPLC grade water for the final concentrations specified. Stock dihexa is kept in powder form and stored at −20° C. Quality control (QC) samples were prepared by spiking fresh rat plasma with an appropriate dilution of dihexa for the final concentration of dihexa specified, keeping a 10:1 ratio of plasma to dihexa solution (final DMSO concentration 5%). The compounds, Nle^1-Ang-IV and Nle-YI-(6) aminohexanoic amide, molecules very similar in structure and properties to dihexa, were used as internal standards and were prepared the same way.\nThe proteins present in the plasma samples were precipitated using three volumes of ice-cold acetonitrile. Internal standards were then added and the samples were vortexed for approximately 10 seconds. Samples were then centrifuged at 5000 RPM for 5 minutes. The supernatants were transferred to new tubes and stored until use at −20° C. Samples were then concentrated to a volume of approximately 100 ul. 200 ul HPLC grade water was added to each sample and the samples were transferred to autosampler vials.\nMale Sprague Dawley rats were catheterized as described in the Animals and Surgical Procedures section. […] The typical injection volume was 200 μL yielding an initial estimated DMSO concentration in blood of 0.46%. After dosing, blood samples were collected as described in Table 7.\nThe blood samples were collected into polypropylene microcentrifuge tubes and cooled on ice for not more than 1 hour. The samples were centrifuged at 5000 RPM for 7 minutes and 80 μL plasma were transferred into previously prepared tubes containing 240 μL ice-cold acetonitrile. The samples were vortexed vigorously for 30 seconds and held on ice. 100 μg/mL Nle-YI-(6) aminohexanoic amide in 10 μL was used as an internal standard and added to each sample on ice.\n10 μL of each serial dilution was then added to 90 μL of blank plasma for final concentrations of 0.01, 0.02, 0.05, 0.1, 0.2, 1, 10, 20, 50 and 100 μg/mL. 80 μL of each plasma sample was transferred to previously prepared tubes containing 240 μL ice-cold acetonitrile and vortexed vigorously. 10 μL containing 100 μg/mL Nle-YI-(6) aminohexanoic amide as an internal standard, was added to each sample on ice. The standard curve plasma samples were then stored at −20° C. and further processed alongside the pharmacokinetic study samples according to the method described above.\nThe analytical column that was used was n C18 (100 mm×2.1 mm). The mobile phase consisted of HPLC grade acetonitrile and water with 0.1% acetic acid. […] For MS analysis, a positive ion mode (SIM) was used to monitor the m/z of dihexa at […] (dihexa with the addition of a sodium adduct) and the m/z of Nle-YI-(6) aminohexanoic amide and Nle^1-AngIV (internal standards) at 513 and 541, respectively (both with sodium adducts). Samples were introduced using the autosampler and the injection volume was 50 ul. For the microsomal study, the m/z of verapamil was 455, the m/z of piroxicam was 332, and the m/z of 7-ethoxycoumarin was 191.\nPharmacokinetic analysis was performed using data from individual rats from which the mean and standard error of the mean (SEM) were calculated for each group."}, "[2]": {"conditions": "scopolamine icv, dihexa icv 1 nmol"}, "[3]": {"conditions": "male, Sprague-Dawley, rat, plasma, IV 10 mg/kg, rats, Mean ± SEM"}}, "note": "“Also recorded” adds a separate entry of the source. Where two headings read alike, the source gives them in different places. Where a SMILES comes first, the peptide text is derived from it. [ ]: non-standard residue; d: D form. The star is where a group is joined. Hexanoyl = CCCCCC(=O)*; Ahx = NCCCCCC(=O)O", "data": [{"compound": "CCCCCC(=O)N[C@@H](Cc1ccc(O)cc1)C(=O)N[C@H](C(=O)NCCCCCC(N)=O)[C@@H](C)CC", "note": "[Dihexa, N-hexanoic-Tyr-Ile-(6)-aminohexanoic amide] (Hexanoyl-Tyr-Ile-[Ahx]-NH2)", "values": [{"measurement": "mean latency to find the pedestal", "setting": "scopolamine treated rats; day one of training, icv", "value": 115.2, "unit": "s"}, {"measurement": "time spent in the target quadrant, day 9 probe trial", "setting": "scopolamine treated rats; dihexa at its highest dose, icv, ip and oral delivery", "value": "increased the time spent in the target quadrant"}, {"measurement": "time spent in the target quadrant, day 9 probe trial", "setting": "scopolamine treated rats; dihexa ip 0.05, 0.25, 0.50 mg/kg", "value": "Each of the treatment groups was different than the scopolamine"}, {"measurement": "time spent in the target quadrant, day 9 probe trial", "setting": "scopolamine treated rats; dihexa oral 1.25 and 2.0 mg/kg", "value": "Both of the treatment groups were different than the scopolamine"}, {"measurement": "mean latency to find the pedestal", "setting": "scopolamine treated rats; final day of training (day 8), icv", "value": 62.3, "unit": "s"}, {"measurement": "mean latency to find the pedestal", "setting": "scopolamine treated rats; fourth day of training, icv", "value": 63.0, "unit": "s"}, {"measurement": "latency to escape, Morris water maze (FIG. 21)", "setting": "scopolamine treated rats; i.c.v. injections, 8 days of training", "value": "show rapid facilitation of the task"}, {"measurement": "latency to find the pedestal in the water maze", "setting": "scopolamine treated rats; scopolamine icv, Dihexa ICV 10 pmoles (low dose)", "value": "not 10 pmoles"}, {"measurement": "latency to find the pedestal in the water maze", "setting": "scopolamine treated rats; scopolamine icv, Dihexa ICV 100 pmoles (high dose), daily, 8 days", "value": "reversed scopolamine-dependent learning deficits; also recorded: completely overcome the scopolamine deficits"}, {"measurement": "latency to find the pedestal in the water maze", "setting": "scopolamine treated rats; scopolamine icv, Dihexa oral 1.25 mg/kg/day (low dose)", "value": "partially reversed"}, {"measurement": "latency to find the pedestal in the water maze", "setting": "scopolamine treated rats; scopolamine icv, Dihexa oral 2 mg/kg/day (high dose), 2 mg/kg/day", "value": "no different than controls; also recorded: completely overcome the scopolamine deficits"}, {"measurement": "latency to find the pedestal in the water maze", "setting": "scopolamine treated rats; scopolamine icv, Dihexa oral 2 mg/kg/day (high dose), listed as dihexa, 2 mg/kg/day", "value": "indistinguishable from vehicle controls; also recorded: completely reversed the scopolamine-dependent learning deficit"}, {"measurement": "latency to find the submerged platform in the Morris water maze", "setting": "scopolamine treated rats; scopolamine icv, dihexa icv 0.1 nmol", "value": "significantly improved performance when compared to the scopolamine group on days 5-8"}, {"measurement": "latency to find the submerged platform in the Morris water maze", "setting": "scopolamine treated rats; [2]", "value": "significantly improved performance; also recorded: indistinguishable from the vehicle control group; also recorded: all time points for the 1 nmol dihexa group were different from the scopolamine group"}, {"measurement": "time spent in the target quadrant, day 9 probe trial", "setting": "scopolamine treated rats; [2]", "value": "vehicle control groups were not different"}, {"measurement": "latency to find the submerged platform in the Morris water maze", "setting": "scopolamine treated rats; scopolamine icv, dihexa ip 0.05 mg/kg", "value": "not different than the scopolamine group"}, {"measurement": "latency to find the submerged platform in the Morris water maze", "setting": "scopolamine treated rats; scopolamine icv, dihexa ip 0.25 mg/kg", "value": "different than the scopolamine"}, {"measurement": "latency to find the submerged platform in the Morris water maze", "setting": "scopolamine treated rats; scopolamine icv, dihexa ip 0.50 mg/kg, 0.5 mg/kg", "value": "indistinguishable from vehicle controls; also recorded: different than the scopolamine; also recorded: not different than the vehicle control group"}, {"measurement": "c-Met phosphorylation vs vehicle (aCSF)", "setting": "c-Met receptor; saturating doses: HGF 100 ng/ml, Dihexa 10^−10 M", "value": "increased c-Met phosphorylation; also recorded: effectively augment c-Met phosphorylation"}, {"measurement": "c-Met phosphorylation vs vehicle (aCSF)", "setting": "c-Met receptor; sub-threshold doses: HGF 50 ng/ml, Dihexa 10^−12 M", "value": "not statistically different from control treated slices; also recorded: did not significantly increase c-Met receptor phosphorylation"}, {"measurement": "Cp0", "setting": "[1]; IV 10 mg/kg, rats, Mean ± SEM", "value": "87.3 ± 31.9", "unit": "µg/mL"}, {"measurement": "KE", "setting": "[1]; IV 10 mg/kg, rats, Mean ± SEM", "value": "0.00007 ± 0.00004", "unit": "min⁻¹"}, {"measurement": "half-life", "setting": "[1]; male, Sprague-Dawley, rat, plasma, ip, 20 mg/kg, delivered intraperitoneally, Mean+/−SEM, N=4, read-out: half-life (t1/2) (converted)", "value": 8.83, "unit": "days"}, {"measurement": "half-life", "setting": "[1]; male, Sprague-Dawley, rat, plasma, iv, 10 mg/kg, IV 10 mg/kg, rats, Mean ± SEM, read-out: t½", "value": "12.7 ± 5.41", "unit": "days"}, {"measurement": "half-life", "setting": "[1]; male, Sprague-Dawley, rat, plasma, iv, 10 mg/kg, IV administration 10 mg/kg, rats, read-out: half-life (t1/2) (converted)", "value": 12.7, "unit": "days"}, {"measurement": "Vd", "setting": "[1]; [3]", "value": "54.4 ± 14.8", "unit": "L/kg"}, {"measurement": "clearance", "setting": "[1]; [3]", "value": "2.6 ± 0.7", "unit": "mL/min/kg"}, {"measurement": "AUC(0-inf)", "setting": "[1]; male, Sprague-Dawley, rat, plasma, IV 10 mg/kg, rats, Mean ± SEM, N = 3", "value": 74500, "unit": "ng·h/mL"}]}]}
